Assay results taken from PubChem BioAssay AID1918994 (Molecular Pharmacology Branch, DTP, NCI, 2023).
Where “and” joins values, the source holds several entries; their conditions need not be identical. Equal entries are not always repeated.

Tested on: 292921-168-R-J2-PDC complex spheroid growth
Assay: Anticancer human tumor 292921-168-R-J2-PDC patient-derived pancreatic carcinoma cell line growth inhibition [AhR]
Settings: for viability, T/C: stronger effect = lower value; active means viability on the fitted dose curve at most 10% of control; inactive means the rest
How it was run: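 Agents were dosed in half-log steps down from roughly clinical Cmax, or from 10 microM where Cmax was unknown, alone and with AhR antagonists. Read-out: percent test/control growth of tumor spheroids containing HUVEC and MSC stromal cells.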

[1] = curve of first compound, second compound 0.1 µM
[2] = curve of first compound, second compound 0.316 µM
[3] = curve of first compound, second compound 1 µM
[4] = curve of first compound, second compound 3.16 µM
[5] = curve of first compound, second compound 10 µM
[6] = second compound 0.1 µM, first compound 0.0316 µM
[7] = second compound 0.1 µM, first compound 0.1 µM
[8] = second compound 0.316 µM, first compound 0.0316 µM
[9] = second compound 0.316 µM, first compound 0.1 µM
[10] = second compound 1 µM, first compound 0.0316 µM
[11] = second compound 1 µM, first compound 0.1 µM
[12] = second compound 3.16 µM, first compound 0.0316 µM
[13] = second compound 3.16 µM, first compound 0.1 µM
[14] = second compound 10 µM, first compound 0.0316 µM
[15] = second compound 10 µM, first compound 0.1 µM
[16] = second compound 0.1 µM, first compound 0.316 µM
[17] = second compound 0.1 µM, first compound 1 µM
[18] = second compound 0.1 µM, first compound 3.16 µM
[19] = second compound 0.1 µM, first compound 10 µM
[20] = second compound 0.316 µM, first compound 0.316 µM
[21] = second compound 0.316 µM, first compound 1 µM
[22] = second compound 0.316 µM, first compound 3.16 µM
[23] = second compound 0.316 µM, first compound 10 µM
[24] = second compound 1 µM, first compound 0.316 µM
[25] = second compound 1 µM, first compound 1 µM
[26] = second compound 1 µM, first compound 3.16 µM
[27] = second compound 1 µM, first compound 10 µM
[28] = second compound 3.16 µM, first compound 0.316 µM
[29] = second compound 3.16 µM, first compound 1 µM
[30] = second compound 3.16 µM, first compound 3.16 µM
[31] = second compound 3.16 µM, first compound 10 µM
[32] = second compound 10 µM, first compound 0.316 µM
[33] = second compound 10 µM, first compound 1 µM
[34] = second compound 10 µM, first compound 3.16 µM
[35] = second compound 10 µM, first compound 10 µM
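Further: spheroids exposed to compounds for seven days after three days of growth.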

CC[C@@]1(O)C(=O)OCc2c1cc1n(c2=O)Cc2cc3c(CN(C)C)c(O)ccc3nc2-1 + Cc1cncc(-c2nc(NCCc3c[nH]c4ccccc34)c3ncn(C(C)C)c3n2)c1
28.1 nM: IC50 [2]
1.19 nM: IC50 [5]
39.2 nM: IC50 [1]
inactive: viability, T/C (second compound 0.1 µM, first compound 0.000316 µM) 90.2% | viability, T/C (second compound 0.1 µM, first compound 0.001 µM) 90.4% | viability, T/C (second compound 0.1 µM, first compound 0.00316 µM) 89.5% | viability, T/C (second compound 0.1 µM, first compound 0.01 µM) 68.1% | viability, T/C [6] 58.9% | viability, T/C [7] 23.3% | viability, T/C (second compound 0.316 µM, first compound 0.000316 µM) 89.1% | viability, T/C (second compound 0.316 µM, first compound 0.001 µM) 92.8% | viability, T/C (second compound 0.316 µM, first compound 0.00316 µM) 87.8% | viability, T/C (second compound 0.316 µM, first compound 0.01 µM) 67.4% | viability, T/C [8] 49.6% | viability, T/C [9] 23.7% | viability, T/C (second compound 1 µM, first compound 0.000316 µM) 91% | viability, T/C (second compound 1 µM, first compound 0.001 µM) 90.6% | viability, T/C (second compound 1 µM, first compound 0.00316 µM) 80.9% | viability, T/C (second compound 1 µM, first compound 0.01 µM) 60.3% | viability, T/C [10] 54% | viability, T/C [11] 24.1% | viability, T/C (second compound 3.16 µM, first compound 0.000316 µM) 69.9% | viability, T/C (second compound 3.16 µM, first compound 0.001 µM) 67.7% | viability, T/C (second compound 3.16 µM, first compound 0.00316 µM) 73.2% | viability, T/C (second compound 3.16 µM, first compound 0.01 µM) 59.4% | viability, T/C [12] 44.2% | viability, T/C [13] 22.2% | viability, T/C (second compound 10 µM, first compound 0.000316 µM) 52.1% | viability, T/C (second compound 10 µM, first compound 0.001 µM) 49.1% | viability, T/C (second compound 10 µM, first compound 0.00316 µM) 50.1% | viability, T/C (second compound 10 µM, first compound 0.01 µM) 37.5% | viability, T/C [14] 33.4% | viability, T/C [15] 24.2%
30.2 nM: IC50 [3]
21 nM: IC50 [4]

CC1COCCN1c1cc(C2(S(C)(=N)=O)CC2)nc(-c2ccnc3[nH]ccc23)n1 (configuration not stated) + CC(CO)NC(=O)c1cc(-c2ccc(Cl)cc2)nn(-c2cnn(C)c2)c1=O
3620 nM: IC50 [3]
2940 nM: IC50 [4]
1740 nM: IC50 [5]
inactive: viability, T/C [6] 106% | viability, T/C [7] 114% | viability, T/C [16] 105% | viability, T/C [17] 82.9% | viability, T/C [18] 51% | viability, T/C [19] 34.4% | viability, T/C [8] 107% | viability, T/C [9] 104% | viability, T/C [20] 105% | viability, T/C [21] 87.3% | viability, T/C [22] 48.4% | viability, T/C [23] 31.9% | viability, T/C [10] 114% | viability, T/C [11] 107% | viability, T/C [24] 99.5% | viability, T/C [25] 89.4% | viability, T/C [26] 50.8% | viability, T/C [27] 31.2% | viability, T/C [12] 102% | viability, T/C [13] 88.1% | viability, T/C [28] 94.9% | viability, T/C [29] 84.3% | viability, T/C [30] 47.7% | viability, T/C [31] 28.4% | viability, T/C [14] 78.7% | viability, T/C [15] 74.2% | viability, T/C [32] 80.8% | viability, T/C [33] 63.9% | viability, T/C [34] 34.7% | viability, T/C [35] 25.4%
3000 nM: IC50 [2]
3200 nM: IC50 [1]

CC1(C)CCC(CN2CCN(c3ccc(C(=O)NS(=O)(=O)c4ccc(NCC5CCOCC5)c([N+](=O)[O-])c4)c(Oc4cnc5[nH]ccc5c4)c3)CC2)=C(c2ccc(Cl)cc2)C1
inactive: viability, T/C (compound 0.0316 µM) 104% and 92.6% and 102% | viability, T/C (compound 0.1 µM) 106% and 105% and 104% | viability, T/C (compound 0.316 µM) 108% and 109% and 97.2% | viability, T/C (compound 1 µM) 106% and 116% and 102% | viability, T/C (compound 3.16 µM) 102% and 109% and 94% | viability, T/C (compound 10 µM) 22.7% and 18.6% and 22.2%
6730 nM and 6620 nM and 6410 nM: IC50 (curve of compound)

COc1cc(C2c3cc4c(cc3C(OC3OC5COC(C)OC5C(O)C3O)C3COC(=O)C23)OCO4)cc(OC)c1O (configuration not stated) + Cc1cncc(-c2nc(NCCc3c[nH]c4ccccc34)c3ncn(C(C)C)c3n2)c1
581 nM: IC50 [2]
inactive: viability, T/C [6] 92.6% | viability, T/C [7] 92.2% | viability, T/C [16] 64% | viability, T/C [17] 34.1% | viability, T/C [18] 24.2% | viability, T/C [19] 13.3% | viability, T/C [8] 78.7% | viability, T/C [9] 73.6% | viability, T/C [20] 64.8% | viability, T/C [21] 35.9% | viability, T/C [22] 24.7% | viability, T/C [23] 12.9% | viability, T/C [10] 77.1% | viability, T/C [11] 67% | viability, T/C [24] 48.9% | viability, T/C [25] 28.7% | viability, T/C [26] 23.4% | viability, T/C [27] 13.1% | viability, T/C [12] 62.3% | viability, T/C [13] 62.5% | viability, T/C [28] 47.5% | viability, T/C [29] 25.9% | viability, T/C [30] 21.2% | viability, T/C [31] 13.5% | viability, T/C [14] 46.5% | viability, T/C [15] 43.6% | viability, T/C [32] 37.2% | viability, T/C [33] 26.2% | viability, T/C [34] 22.3% | viability, T/C [35] 20.2%
289 nM: IC50 [3]
< 31.6 nM: IC50 [5]
261 nM: IC50 [4]
565 nM: IC50 [1]
